Test [1] addresses T1, 5α-reductase type 1 (5α-R1) (Homo sapiens, UniProt P18405).
T1 construct: gene SRD5A1
T1 sequence (P18405 1-259): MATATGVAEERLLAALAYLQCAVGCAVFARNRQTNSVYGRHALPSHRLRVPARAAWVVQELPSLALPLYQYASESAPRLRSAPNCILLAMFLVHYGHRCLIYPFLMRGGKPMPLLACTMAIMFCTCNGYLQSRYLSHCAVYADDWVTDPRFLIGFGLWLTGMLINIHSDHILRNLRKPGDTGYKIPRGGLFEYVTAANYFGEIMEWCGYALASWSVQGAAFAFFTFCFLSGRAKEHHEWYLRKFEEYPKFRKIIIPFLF
Kind of test: HHDPC cell-based assay of testosterone to […]α-DHT conversion (endogenous […]α-R1), non-radioactive TLC detection.

Test [2] concerns the target T1, 5α-reductase type 1 (5α-R1). Kind of test: HHDPC cell-based assay of testosterone to […]α-DHT conversion (endogenous […]α-R1), TLC detection; positive control.

Turning to `CC(C)(O)c1cc2c(o1)C(=O)c1ccccc1C2=O` [G1, naphtho 2'-(1-hydroxy-1-methylethyl)[2,3-β]furan-1,4-dione], the IC50 in test [1] was found to be 38.8 ± 1.29 µM.

Consider `C[C@]12C=CC(=O)N[C@@H]1CC[C@@H]1[C@@H]2CC[C@]2(C)[C@@H](C(=O)Nc3cc(C(F)(F)F)ccc3C(F)(F)F)CC[C@@H]12` [dutasteride], for which the “HHDPC cell-based assay of testosterone to 5α-DHT conversion (endogenous 5α-R1),” value in test [2] is “complete inhibition at 0.1 and 0.01 µg/mL; 16.5% at 0.001”.
